Laboratory results as given in patent publication US20090269351A1, “METHOD OF DIAGNOSING AND TREATING GLIOMA” (Genentech, Inc., priority 2006, published 2009).

Assays:
GBM-derived neurospheres = experiment: Neurosphere growth with growth factors; format: cell-based, human; details: for neurosphere growth: maximal concentration of 20 ng/ml
From the text: Previously described GBM cell lines were used for the instant in vitro studies (Hartman et al., Internat. J. One. 15: 975-982 (1999)). To create neurosphere cultures, two cell lines (G63 and G69) were sorted using a CD133 cell isolation kit (Miltenyi Biotech) according to manufacturer's instructions, and maintained in culture as described for primary GBM specimens (Singh et al., Nature 432: 396-401 (2004)). All neurosphere cultures were maintained in Neurobasal medium (Invitrogen) with N2 supplement (Invitrogen) and NSF1 (Cambrex). For growth studies, both EGF and IGF2 were added at a concentration of 20 ng/ml. Neurospheres of primary GBM were obtained as unsorted dissociate of primary tumor (from Drs. M. Westphal and K. Lamszuz, Univ. Hamburg), expanded and maintained under the same conditions described for cel line-derived neurospheres. Neurosphere assays were performed in triplicate.
When IGF2-dependent neurospheres were disassociated and subjected to a proliferation assay using increasing concentrations of EGF or IGF2, both growth factors induced rapid growth. The growth rate based on growth factor dosage produced an identical growth curve for each growth factor (FIG. 3B).

tumor = details: nude mouse model, Teicher et al. 2002; cited from earlier work

Compound	neurosphere growth (GBM-derived neurospheres)	proliferative response of neurospheres compared with EGF (GBM-derived neurospheres; neurosphere system)	anti-tumor effect (tumor)
IGF2: Recombinant IGF2 (R&D Systems, 292-G2), growth factor	proliferated rapidly	indistinguishable from the response to EGF	–
EGF: growth factor added to neurosphere cultures (NSDSECPLSHDGYCLHDGVCMYIEALDKYACNCVVGYIGERCQYRDLKWWELR; Epidermal growth factor; UniProt P01133 971-1023, looked up)	proliferated rapidly	–	–
Cl.Cn1cc(C2=C(c3cn(C4CCN(Cc5ccccn5)CC4)c4ccccc34)C(=O)NC2=O)c2ccccc21 [317615-HCL]	–	–	anti-tumor effect
